{"source": "patent US5902794A", "about": "(priority 1997, dated 1999)", "key": {"[1]": {"system": "LS-174T colon cancer cells", "assay": "cell cycle analysis, LS-174T", "type": "cell-based, human", "conditions": "8-Cl-adenosine 5 μM, 3 days, two separate experiments", "protocol": "(§1) DNA histograms were generated on FACS II by using the DNA intercalating dye propidium iodide as described by Braylan et al. (Cytometry 2: 337-343, 1982). The percentage of cells in each cycle phase was calculated by using a PDP-11/34 computer and software as described by Neckers et al. (Mol. Cell. Biol. 6: 4244-4250, 1986).\nBreast (MCF-7, MDA-MB-231) and colon (LS-174T) cancer cells in\nlog phase (untreated control) and 3 days after treatment with\n(5 μM) were analyzed for DNA content by flow cytometric analysis"}, "[2]": {"system": "p21 ras protein (MCF-7 cells)", "assay": "Western blotting of p21 ras protein in MCF-7 cells", "type": "cell-based, human", "conditions": "5 microM", "protocol": "(§2) Western blotting of p21 protein was performed as described below. […] V is cell lysate from Ha-MuSV-transformed NIH3T3 clone 13-3B-4. M, marker proteins of known molecular weight.\nCellular proteins present in cell extracts were separated by 12% SDS-PAGE and transferred to nitrocellulose sheets in transfer buffer (25 mM Tris, 192 mM glycine, 20% methanol, pH 7.4). Nitrocellulose sheets were washed and first incubated with 3% bovine serum albumin in NTE-NP40 (50 mM Tris-HCl, pH 7.5, 150 mM NaCl, 2 mM EDTA, 0.1% Nonidet P-40) for three hours at 37° C. and then sequentially incubated with medium containing p21 monoclonal antiserum Y13-259 directed against the Ha-MuSV-encoded p21 for sixteen hours at 4° C., rabbit anti-rat IgG for 2.5 hours in an ice-water bath, and 5×10^5 cpm/ml ^125 I-protein A for one hour in an ice-water bath. The nitrocellulose sheets were air-dried and exposed to Kodak XAR film for 12-36 hours at -20° C. Comparison of the resulting autoradiograms with others in which normal rat serum was substituted for p21 monoclonal antibody permitted identification of p21. To provide a reference p21, cell lysates were prepared from NIH 3T3 clone 13-3B-4 that had been transfected with Ha-MuSV DNA.\nThe levels of p21 protein are expressed relative to the p21 level in the untreated control cells, which is set equal to 1.0 O.D."}, "[3]": {"system": "breast and colon cancer cell lines", "assay": "cell cycle progression of breast and colon cancer cell lines", "type": "cell-based, human", "conditions": "vs untreated control cells", "protocol": "as §1\nA determination was made whether the reduced cell proliferation observed in the cancer cell lines after treatment with the compounds of the present invention is due to a specific block in one phase of the cell cycle."}, "MCF-7 cells": {"system": "MCF-7 cells", "assay": "growth of MCF-7 cells", "type": "cell-based, human", "conditions": "5 microM", "protocol": "as §2\n(§3) All breast cancer cell lines were grown in IMEM supplemented with 10% fetal bovine serum, 20 mM HEPES, penicillin-streptomycin, and extra glutamine. Colon carcinoma cell lines were grown in EMEM supplemented with 10% FBS, EMEM, NEAA, HEPES 20 mM, extra glutamine, and penicillin-streptomycin. The cells were grown at 37° C. in humidified incubators in an atmosphere of 5% CO2.\nFor cell growth experiments, 2-3×10^5 cells/60 mm dish were seeded, and 24 hours later (Day 0), the medium was removed, and fresh medium and the additives were added then and every 48 hours thereafter The compounds of the present invention were added using 100× concentrated stock solutions. At desired times, cell counts in duplicate were performed on a Coulter counter after harvesting the cells with gentle trypsinization."}, "[4]": {"system": "LS-174T colon cancer line", "assay": "growth inhibition and release from inhibition, LS-174T (FIG. 3)", "type": "cell-based, human", "protocol": "1×10^5 cells/60 mm dish were seeded, and 24 hours later (Day 0), the medium was removed and fresh medium and additives were added then and every 48 hours thereafter. […] The triplicate cell count for each experimental point never varied by more than 10%.\nas §3"}, "c-myc protein": {"system": "c-myc protein", "assay": "c-myc protein level, Western blotting (FIG. 9B)", "type": "cell-based, human", "conditions": "growth-arrested by 8-Cl-adenosine (5 micromol/L)", "protocol": "The cells were grown in suspension culture in RPMI 1640 medium supplemented with 10% fetal bovine serum, penicillin (50 U/ml), streptomycin ([…]), 10 mmol/L HEPES buffer, and extra glutamine. […] Surface antigen analysis of HL-60 cells was performed by flow cytometry using a panel of monoclonal antibodies reactive with either myeloid cells or monocytic cells. Terminal deoxynucleotidyl transferase (TdT) was assayed by an immunoperoxidase method using a TdT fluorescence kit. Western blotting of c-myc protein was performed using c-myc antibody 15206D11 (Scripps Clinic and Research Foundation, LaJolla, Calif.).\n(§4) M marker proteins of known molecular weight. […] The resulting supernatants were used as cell lysates. […] ND=nondetectable."}, "[5]": {"system": "R^I cAMP receptor protein (Molt-4)", "assay": "R^I cAMP receptor protein in Molt-4 leukemic cells", "type": "cell-based, human", "conditions": "growth-arrested by 8-Cl-adenosine (5 micromol/L)", "source_text": "as §4"}, "[6]": {"system": "two mammary, one lung, and one colon tumor", "assay": "human tumor xenografts in athymic mice", "type": "in vivo", "conditions": "seven day intraperitoneal infusions", "protocol": "(§5) Based on the findings with the L1210 leukemia model, the efficacy of the 8-Cl-cAMP-Na+ infusions were evaluated in advanced-stage human tumor xenograft models. Tumor fragments of approximately 14 mg were implanted subcutaneously in athymic CD-1 female mice and seven day intraperitoneal infusions of the cyclic nucleotide were initiated three weeks later when mean tumor weights had reached 300-400 mg. Tumor measurements were recorded on the initial day of treatment (staging day) and one day after treatment was completed (staging day+7), and were used to calculate changes in tumor weights."}, "[7]": {"system": "MDA-MB-231 mammary carcinoma", "assay": "growth of MDA-MB-231 human mammary tumor xenograft", "type": "in vivo", "conditions": "7 days, staging day", "protocol": "as §5\n(§6) *Mean tumor weight per group on staging day.\n(§7) $Mean tumor weight per group on staging day +7.\n(§8) **Change in *test tumor wt (finalinitial)/initial test tumor wt. Used\n(§9) where test tumor size was reduced during treatment. Denoted by negative\n(§10) $$Change in test tumor wt/change in control tumor wt. Used where test\n(§11) tumor size increased during treatment. Denoted by positive value."}, "LX-1-Lung carcinoma": {"system": "LX-1-Lung carcinoma", "assay": "growth of LX-1 human lung tumor xenograft", "type": "in vivo", "conditions": "7 days, staging day", "protocol": "as §5, §6, §7\n(§12) **Change in test tumor wt (final initial)/initial test tumor wt. Used\n(§13) where tumor size was reduced during treatment. Denoted by negative value.\nas §10, §11"}, "MX-1 mammary carcinoma": {"system": "MX-1 mammary carcinoma", "assay": "growth of MX-1 human mammary tumor xenograft", "type": "in vivo", "conditions": "7 days, staging day", "protocol": "as §5, §6, §7, §8, §9, §10, §11"}, "human LoVo colon tumors": {"system": "human LoVo colon tumors", "assay": "subcutaneous infusion in athymic NCR-NU mice bearing human LoVo colon tumors", "type": "in vivo", "conditions": "s.c. infusion approx. 42 mg/kg/day (1 mg/mouse), seven days"}, "LOVO Colon carcinoma": {"system": "LOVO Colon carcinoma", "assay": "growth of LOVO human colon tumor xenograft", "type": "in vivo", "conditions": "7 days; for Initial Mean Tumor Wt: staging day", "protocol": "as §5, §6, §7, §12, §13, §10, §11"}, "[8]": {"assay": "lethality in non-tumored BDF1 mice, single i.p. injection", "type": "in vivo, mouse", "conditions": "qd, day 1; for Toxic deaths, No. killed/No. treated: ip", "source_text": "Influence of 8-Cl-cAMP-Na^+ on the life span of non-tumor\nBDF1 mice when delivered i.p. by bolus injection"}, "murine leukemia L1210": {"system": "murine leukemia L1210", "assay": "life span of L1210-inoculated BDF1 mice", "type": "in vivo, mouse", "conditions": "for toxicity remark: ip, 24-hr infusion, day 1-5", "source_text": "| Infusions by Harvard pumps."}}}
{"smiles": "Nc1ncnc2c1nc(Cl)n2[C@@H]1O[C@H](CO)[C@@H](O)[C@H]1O", "note": "[8-Cl-adenosine, reference compound]", "values": [{"measurement": "% Cell population in G1", "setting": "[1]", "value": "72,68%"}, {"measurement": "% Cell population in G2 M", "setting": "[1]", "value": "20,18%"}, {"measurement": "% Cell population in S", "setting": "[1]", "value": "8,14%"}, {"measurement": "activity at 5 µM", "setting": "[1]; Homo sapiens, LS174T, 72 h, read-out: % Growth", "value": 30.3, "unit": "%"}, {"measurement": "p21 level, in words", "setting": "[2]", "value": "did not appreciably affect the p21 level"}, {"measurement": "fractions of cells in G1, S and G2/M phases, in words", "setting": "[3]", "value": "appreciable increase of the cell population in Gl phase with a marked reduction in S-phase"}, {"measurement": "growth inhibition, in words", "setting": "MCF-7 cells", "value": "strong growth inhibition"}, {"measurement": "mechanism of growth inhibition / cell viability", "setting": "[4]", "value": "cell killing"}, {"measurement": "cell growth during treatment", "setting": "[4]; 8-Cl-cAMP 10 microM or 8-Cl-adenosine 5 microM", "value": "marked reduction in cell growth"}, {"measurement": "growth after cessation of treatment", "setting": "[4]; after removal of additives", "value": "remained growth-inhibited and did not resume their growth up to two weeks"}, {"measurement": "decrease in c-myc protein level", "setting": "c-myc protein", "value": "not observed"}, {"measurement": "decrease in R^I receptor level", "setting": "[5]", "value": "not observed"}]}
{"smiles": "Nc1ncnc2c1nc(Cl)n2[C@@H]1O[C@@H]2COP(=O)(O)O[C@H]2[C@H]1O", "note": "[8-Cl-cAMP-Na^+]", "values": [{"measurement": "tumor growth during infusion, in words", "setting": "[6]", "value": "tumor stasis during treatment"}, {"measurement": "Initial Mean Tumor Wt", "setting": "[7]; 37 mg/kg/day ip infusion", "value": 367, "unit": "mg"}, {"measurement": "Initial Mean Tumor Wt", "setting": "[7]; 62 mg/kg/day ip infusion", "value": 375, "unit": "mg"}, {"measurement": "Initial Mean Tumor Wt", "setting": "[7]; 104 mg/kg/day ip infusion", "value": 367, "unit": "mg"}, {"measurement": "Initial Mean Tumor Wt", "setting": "LX-1-Lung carcinoma; 37 mg/kg/day ip infusion", "value": 330, "unit": "mg"}, {"measurement": "Initial Mean Tumor Wt", "setting": "LX-1-Lung carcinoma; 62 mg/kg/day ip infusion", "value": 327, "unit": "mg"}, {"measurement": "Initial Mean Tumor Wt", "setting": "LX-1-Lung carcinoma; 104 mg/kg/day ip infusion", "value": 324, "unit": "mg"}, {"measurement": "Initial Mean Tumor Wt", "setting": "MX-1 mammary carcinoma; 62 mg/kg/day ip infusion", "value": 337, "unit": "mg"}, {"measurement": "Initial Mean Tumor Wt", "setting": "MX-1 mammary carcinoma; 104 mg/kg/day ip infusion", "value": 346, "unit": "mg"}, {"measurement": "Initial Mean Tumor Wt", "setting": "MX-1 mammary carcinoma; 173 mg/kg/day ip infusion", "value": 375, "unit": "mg"}, {"measurement": "toxicity", "setting": "human LoVo colon tumors", "value": "appeared to be toxic"}, {"measurement": "% ΔT/T or % ΔT/ΔC", "setting": "LOVO Colon carcinoma; 37 mg/kg/day ip infusion", "value": "-01", "unit": "%"}, {"measurement": "Initial Mean Tumor Wt", "setting": "LOVO Colon carcinoma; 37 mg/kg/day ip infusion", "value": 288, "unit": "mg"}, {"measurement": "% ΔT/T or % ΔT/ΔC", "setting": "LOVO Colon carcinoma; 62 mg/kg/day ip infusion", "value": "-01", "unit": "%"}, {"measurement": "Initial Mean Tumor Wt", "setting": "LOVO Colon carcinoma; 62 mg/kg/day ip infusion", "value": 293, "unit": "mg"}, {"measurement": "Initial Mean Tumor Wt", "setting": "LOVO Colon carcinoma; 104 mg/kg/day ip infusion", "value": 288, "unit": "mg"}, {"measurement": "Toxic deaths, No. killed/No. treated", "setting": "[8]; 22 mg/kg/inj", "value": 0}, {"measurement": "Toxic deaths, No. killed/No. treated", "setting": "[8]; 37 mg/kg/inj", "value": 0}, {"measurement": "Toxic deaths, No. killed/No. treated", "setting": "[8]; 62 mg/kg/inj", "value": 0}, {"measurement": "Toxic deaths, No. killed/No. treated", "setting": "[8]; 104 mg/kg/inj", "value": 0}, {"measurement": "mice killed (footnote)", "setting": "[8]; 173 mg/kg", "value": "2 of 5"}, {"measurement": "Toxic deaths, No. killed/No. treated", "setting": "[8]; 173 mg/kg/inj", "value": "2/5"}, {"measurement": "Toxic deaths, No. killed/No. treated", "setting": "[8]; 288 mg/kg/inj", "value": "5/5"}, {"measurement": "Toxic deaths, No. killed/No. treated", "setting": "[8]; 480 mg/kg/inj", "value": "5/5"}, {"measurement": "lethality (footnote)", "setting": "[8]; 480 and 288 mg/kg", "value": "lethally toxic for all treated mice"}, {"measurement": "lethality (footnote)", "setting": "[8]; dosages lower than 173 mg/kg", "value": "not lethally"}, {"measurement": "mice killed (footnote)", "setting": "murine leukemia L1210; 288 mg/kg, infused", "value": "2 to 5", "unit": "mice"}, {"measurement": "toxicity remark", "setting": "murine leukemia L1210; 288 mg/kg/day", "value": "toxic"}, {"measurement": "toxicity remark", "setting": "murine leukemia L1210; 480 mg/kg/day", "value": "toxic"}, {"measurement": "toxicity remark", "setting": "murine leukemia L1210; 800 mg/kg/day", "value": "toxic"}, {"measurement": "lethality (footnote)", "setting": "murine leukemia L1210; 800 and 480 mg/kg, infused", "value": "lethally toxic for all treated mice"}]}
